Reference: paper PMC3702509, “Label Free Fragment Screening Using Surface Plasmon Resonance as a Tool for Fragment Finding – Analyzing Parkin, a Difficult CNS Target” (PLoS ONE, 2013)

Columns and labels:
[1] = biological target: T1, FL-FLAG-Parkin RT (non-thermal treated) (Homo sapiens, UniProt O60260); assay: SPR kinetics/affinity on non-thermal treated FL-FLAG Parkin captured by anti-FLAG antibody; assay type: binding; conditions: for direct binding of reducing agent by SPR: non-thermal treated Parkin
T1 construct: the entire coding region (residues 1–465) from NM_004562.1 was cloned into pFastBac; made in house; host or cells: Sf9 or Sf21 insect cells (baculovirus)
T1 sequence (O60260 1-465): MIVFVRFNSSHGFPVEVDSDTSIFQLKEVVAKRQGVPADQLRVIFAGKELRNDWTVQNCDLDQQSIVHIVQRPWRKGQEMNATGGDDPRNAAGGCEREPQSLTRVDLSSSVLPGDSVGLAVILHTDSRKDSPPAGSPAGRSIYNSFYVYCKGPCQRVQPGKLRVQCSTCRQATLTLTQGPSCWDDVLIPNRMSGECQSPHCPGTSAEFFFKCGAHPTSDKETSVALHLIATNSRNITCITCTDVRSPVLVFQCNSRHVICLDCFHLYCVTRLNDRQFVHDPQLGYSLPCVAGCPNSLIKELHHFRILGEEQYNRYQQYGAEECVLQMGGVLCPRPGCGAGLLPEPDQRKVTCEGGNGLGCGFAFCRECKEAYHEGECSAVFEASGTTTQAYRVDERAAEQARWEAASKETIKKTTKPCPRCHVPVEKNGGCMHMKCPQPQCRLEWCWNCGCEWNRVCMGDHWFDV
Method: Kinetics and Affinity measurements were performed on a GE Healthcare Biacore T100 or T200 instrument. Anti-FLAG antibody M2 was immobilized on a CM5 sensor chip using standard amine coupling procedure at a concentration of 100 μg/ml to a level of 10000 response units (RU). […] Flow cell 2 contained antibody only to control for non-specific binding of fragments to the antibody, and flow cells 3 and 4 contained antibody and captured Parkin. Untagged Parkin domain R0RBR was immobilized by amine coupling at a concentration of 100 μg/ml in 10 mM acetic acid pH 5.0 using the same running buffer as for anti-FLAG antibody immobilization. […]
(§1) The flow rate was 30μl/min. The time-dependent binding curves were monitored simultaneously. The surfaces were then regenerated after each binding experiment by washing the surfaces with an injection of running buffer. Kinetics and affinity experiments were repeated at least twice at two different test occasions.
(§2) Kinetic and affinity data were solvent corrected (fragments only), reference subtracted and blank subtracted using the Biacore T200 evaluation software V.1. Kinetic constants were determined by curve fitting using a 1∶1 binding model. Association and dissociation curves were fitted globally or locally. The rate of complex formation (1∶1 interaction) during fragment injection was calculated according to the equation (2): [drawing 2] (2) where R is the SPR signal in response units (RU), C is the concentration of analyte, Rmax is the maximum analyte binding capacity in RU, dR/dt is the rate of SPR signal change. To determine the association constant ka between fragment and protein, the early binding phase was used. The dissociation phase kd was measured using the rate of decline in RU after the injection stop, when free running buffer is flowing over the surface. Data were simultaneously fitted by the software and the dissociation constant KD calculated using equation (3). [drawing 3] (3) Ligand efficiency (LE, Δg) was calculated as the binding energy of ligand per atom (equation 4) [drawing 4] (4) where Nh is the number of heavy (i.e., non-hydrogen) atoms in the ligand.
The dissociation half-life (t1/2) was calculated by equation (5). [drawing 5] (5)

[2] = biological target: T2, FL-FLAG-Parkin 56°C (thermal treated) (Homo sapiens, UniProt O60260); assay: SPR kinetics/affinity on thermal treated FL-FLAG Parkin captured by anti-FLAG antibody; assay type: binding
T2 construct: the entire coding region (residues 1–465) from NM_004562.1 was cloned into pFastBac; made in house; host or cells: Sf9 or Sf21 insect cells (baculovirus)
T2 sequence (O60260 1-465): T1 sequence (O60260 1-465)
Method: Kinetics and Affinity measurements were performed on a GE Healthcare Biacore T100 or T200 instrument. Anti-FLAG antibody M2 was immobilized on a CM5 sensor chip using standard amine coupling procedure at a concentration of 100 μg/ml to a level of 10000 response units (RU). […] The running buffer for both methods was 10 mM HEPES pH 7.4, 150 mM NaCl, 0.005% Tween-20, 4 mM reducing agent. […] Flow cell 2 contained antibody only to control for non-specific binding of fragments to the antibody, and flow cells 3 and 4 contained antibody and captured Parkin. Untagged Parkin domain R0RBR was immobilized by amine coupling at a concentration of 100 μg/ml in 10 mM acetic acid pH 5.0 using the same running buffer as for anti-FLAG antibody immobilization. The surface was then washed with 10 mM HEPES pH 7.4, 150 mM NaCl, 0.005% Tween-20, 4 mM reducing agent for at least one hour.
as §1
as §2, with “(2) where R is the SPR signal in response units (RU), C is the concentration of analyte, Rmax is the maximum analyte binding capacity in RU, dR/dt is the rate of SPR signal change. To determine the association constant ka between fragment and protein, the early binding phase was used.” left out, “[drawing 3]” left out, “(4) where Nh is the number of heavy (i.e., non-hydrogen) atoms in the ligand.” left out
The dissociation half-life (t1/2) was calculated by equation (5). […]

FL-FLAG Parkin [3] = biological target: T3, FL-FLAG Parkin (Homo sapiens, UniProt O60260); assay: STD NMR binding to FL-FLAG-Parkin; conditions: 4 µM FL Parkin, 0.5 mM DTT, 0.25 mM compound Z, signal at 2.6 ppm
T3 construct: the entire coding region (residues 1–465) from NM_004562.1 was cloned into pFastBac; made in house; host or cells: Sf9 or Sf21 insect cells (baculovirus)
T3 sequence (O60260 1-465): T1 sequence (O60260 1-465)
Method: All NMR experiments were conducted at 15°C on a Bruker Avance 700 MHz spectrometer equipped with a 5 mm TCI cryo-probe. 3 mm NMR tubes were used for reducing the protein consumption. […] The compound concentration was 0.25 mM. […] The Mnova 7.0 (Mestrelab Research) was used in data analysis.

FL-FLAG Parkin [4] = biological target: T3, FL-FLAG Parkin; assay: S5a ubiquitination HTRF (TR-FRET) assay; assay type: biochemical; conditions: Parkin heated at 56°C in presence of reducing agent; DTT at optimal 5–10 mM
Method: FL FLAG-Parkin (35 μM stock) was thermally treated by incubating at 56°C for 30 min. The thermally treated FL FLAG-Parkin stock was stored at −80 C. 5 μl of thermally treated or non-treated FLAG-Parkin diluted in assay buffer was added to wells of a 384-well non-binding plate. […] The reaction was allowed to proceed for 120 min at 30°C. 10 μl of stop-detection mix was added to a final concentration of 75 nM streptavidin XL665 conjugate, 12 mM EDTA in buffer containing 100 mM Na2HPO4 pH 7.0, 300 mM KF, and 0.1% BSA. The 20 μl reaction mixture was incubated for 60 min at room temperature. HTRF read using a LJL Analyst plate reader (Molecular Devices) at excitation 320 nm and emission 665 nm & 615 nm.

R0RBR Domain RT = biological target: T4, R0RBR Domain RT (Homo sapiens, UniProt O60260); assay: SPR kinetics/affinity on amine-coupled Parkin R0RBR domain; assay type: binding; conditions: read-out: Affinities KD of protein ligands
T4 construct: DNA encoding residues 141–465 of Parkin (NM_004562.1) were cloned into the Champion pET SUMO vector; SUMO (His-SUMO of the Champion pET SUMO vector) (N, cleaved yes); made in house; host or cells: E. coli BL21 DE3
T4 sequence (O60260 141-465): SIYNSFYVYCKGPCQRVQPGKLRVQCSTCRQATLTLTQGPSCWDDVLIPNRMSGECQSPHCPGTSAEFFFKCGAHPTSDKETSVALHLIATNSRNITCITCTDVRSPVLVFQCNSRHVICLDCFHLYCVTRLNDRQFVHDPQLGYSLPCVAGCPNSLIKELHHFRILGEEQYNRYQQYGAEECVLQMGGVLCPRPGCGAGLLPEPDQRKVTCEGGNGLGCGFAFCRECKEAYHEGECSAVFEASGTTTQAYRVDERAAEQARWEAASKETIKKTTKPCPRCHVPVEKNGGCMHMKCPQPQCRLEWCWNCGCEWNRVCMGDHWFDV
Method: Kinetics and Affinity measurements were performed on a GE Healthcare Biacore T100 or T200 instrument. Anti-FLAG antibody M2 was immobilized on a CM5 sensor chip using standard amine coupling procedure at a concentration of 100 μg/ml to a level of 10000 response units (RU). Monomeric non-thermal treated FL-Parkin or thermal treated FL-Parkin was captured in 10 mM acetic acid pH 4.5 to levels of up to 16000 RU. The running buffer for both methods was 10 mM HEPES pH 7.4, 150 mM NaCl, 0.005% Tween-20, 4 mM reducing agent. Typically, the 4 flow cells of the sensor chips were used as follows: flow cell 1 served as a reference and was activated and deactivated. […]
To test binding of reducing agents in the absence of small molecules, the reducing agents were diluted and injected in buffer without reducing agents for 180 sec and a dissociation phase of 600 sec. […] The time-dependent binding curves were monitored simultaneously. […]
Kinetic and affinity data were solvent corrected (fragments only), reference subtracted and blank subtracted using the Biacore T200 evaluation software V.1. Kinetic constants were determined by curve fitting using a 1∶1 binding model. […] The rate of complex formation (1∶1 interaction) during fragment injection was calculated according to the equation (2): [drawing 2] […] Data were simultaneously fitted by the software and the dissociation constant KD calculated using equation (3). […]

[5] = SPR, 50 mM HEPES pH 8.8, 0.005% Tween-20, 0.01% PF-127, no other reducing agent

| Compound | Kd [1, 5] | affinity (KD) of reducing agent [1, 5] | Rmax ([1]; SPR, same run as the KD of DTT) | binding activity % Rmax ([1]; SPR, same run as the KD of DTT) | dissociation half-life ([1]; calculated from the dissociation rate kd) | direct binding of reducing agent by SPR [1] | direct binding of reducing agent by SPR [2] | DTT binding in STD spectrum (FL-FLAG Parkin [3]) | improvement of Parkin S5a ubiquitination activity (FL-FLAG Parkin [4]) | dissociation at a fast rate (kd), time ([1]; SPR, protein ligand) | Kd (R0RBR Domain RT) |
| --- | --- | --- | --- | --- | --- | --- | --- | --- | --- | --- | --- |
| O[C@@H](CS)[C@@H](O)CS (racemic) [DTT, Dithiothreitol] | 1.4 µM | low micro-molar affinity | 34 RU | 47 % Rmax | 28.95 min | showed binding | showed binding | binding was evident | – | – | – |
| OCCS [BME, β-mercaptoethanol] | – | – | – | – | – | did not exhibit any binding | did not exhibit any binding | – | up to 2.5 fold | – | – |
| O=C(O)CCP(CCC(=O)O)CCC(=O)O [TCEP] | – | – | – | – | – | did not exhibit any binding | did not exhibit any binding | – | up to 2.5 fold | – | – |
| UbcH7: Ubiquitin conjugating enzyme E2, non-tagged, purified in house | – | – | – | – | – | – | – | – | – | 30 s | 7.1 µM |
